The test deals with TNFα mRNA. It is filed as in vivo, mouse. How it is done:
For tissue, total RNA from the ventral striatum was extracted and isolated by RNAqueous-4PCR total RNA isolation kit (Ambion, AM1914), according to manufacturer's instructions. For microglia and astrocyte cultures, total RNA was isolated by RNeasy kit (Qiagen, 74136). For all sample types, 0.5 μg of total RNA was used for cDNA synthesis with Quantitect Reverse Transcription Kit (Qiagen, 205313), and quantitative RT-PCR was performed with Fast SYBR-Green Master Mix (Applied Biosystems) detected by StepOne Plus RealTime PCR system (Applied Biosystems). The sequences of qPCR primers used for mRNA quantification in this study were obtained from Integrated DNA Technologies, and are as follows: mouse TNFα forward, […] (SEQ ID NO: 1) [200 nM]; mouse TNFα reverse, […] (SEQ ID NO: 2) [200 nM]; mouse GAPDH forward, […] (SEQ ID NO: 3) [300 nM]; mouse GAPDH reverse, […] (SEQ ID NO: 4) [300 nM]; rat TNFα forward, […] (SEQ ID NO: 1) [600 nM]; rat TNFα reverse, […] […] After 40 cycles, the Ct values were determined. To normalize the samples, ΔCt between TNFα and GADPH or cyclophilin Ct values was calculated. The x-fold difference in expression between the different treatments was then determined by subtraction of the ΔCt values and termed ΔΔCt. Finally, the total change was calculated as 2-ΔΔct and the relative amount compared with control samples was deducted.

Structures are written as SMILES.

For the molecule `COC(=O)[C@H]1[C@@H](OC(=O)c2ccccc2)C[C@@H]2CC[C@H]1N2C` [cocaine], the “increase of TNFα mRNA in microglia cells” value (5 daily injections of cocaine, striatum CD11b+ fraction) was roughly 2.5 fold. Also, the “decrease in TNFα mRNA in non-microglial cells” value (five daily cocaine treatments, other striatal cell types) is recorded as 3.26±0.21 fold.

Values taken from patent US10328092B2, “Methods and compositions for treatment of drug addiction” (The Royal Institution for the Advancement of Learning / …, priority 2015, dated 2019).
